Source: ChEMBL document CHEMBL1141799, “Cyanopeptolin 954, a chlorine-containing chymotrypsin inhibitor of Microcystis aeruginosa NIVA Cya 43” (J Nat Prod, 2005)
Calls of active or inactive are those of the source. No cut-off for these calls is given here.

Columns and labels:
[1] = Inhibition of chymotrypsin
[2] = Inhibition of bovine chymotrypsin; set-up: species or system Bos taurus
Bos taurus [3] = organism: Bos taurus; test: Inhibition of bovine trypsin at 17.3 uM
Bos taurus [4] = organism: Bos taurus; test: Inhibition of bovine trypsin at 11.4 uM

Structure (SMILES) | IC50 [1] [nM] | IC50 [2] [nM] | Activity (Bos taurus [3]) | Activity (Bos taurus [4])
CC[C@H](C)[C@@H]1NC(=O)[C@H](Cc2ccc(O)cc2)N(C)C(=O)[C@H](Cc2ccccc2)N2C(=O)[C@H](CC[C@H]2O)NC(=O)[C@H](Cc2ccccc2)NC(=O)[C@@H](NC(=O)[C@@H](O)COP(=O)(O)O)[C@@H](C)OC1=O [MICROPEPTIN T 20] | 2.5 | – | – | –
CC(=O)N[C@@H](CCC(N)=O)C(=O)N[C@@H]1C(=O)N[C@@H](CC(C)C)C(=O)N[C@H]2CC[C@@H](O)N(C2=O)[C@@H](Cc2ccccc2)C(=O)N(C)[C@@H](Cc2ccc(O)cc2)C(=O)N[C@@H](C(C)C)C(=O)O[C@@H]1C [NOSTOPEPTIN BN920] | – | 31.2 | inactive | inactive
CC(=O)N[C@@H](CCC(N)=O)C(=O)N[C@@H]1C(=O)N[C@@H](CC(C)C)C(=O)N[C@H]2CC[C@@H](O)N(C2=O)[C@@H](Cc2ccccc2)C(=O)N(C)[C@@H](Cc2ccc(O)c(Cl)c2)C(=O)N[C@@H](C(C)C)C(=O)O[C@H]1C [CYANOPEPTOLIN 954] | – | 44.5 | inactive | inactive
